The source made the active and inactive calls. No cut-off for these calls is given here.
Experiments:
[1] = target: T1, Muscarinic acetylcholine receptor M1 (Homo sapiens, UniProt P11229); assay: Agonist activity at human muscarinic M1 receptor expressed in CHO cells assessed as effect on calcium mobilization by FLIPR assay; format: functional, cell-based
T1 sequence (P11229 whole entry): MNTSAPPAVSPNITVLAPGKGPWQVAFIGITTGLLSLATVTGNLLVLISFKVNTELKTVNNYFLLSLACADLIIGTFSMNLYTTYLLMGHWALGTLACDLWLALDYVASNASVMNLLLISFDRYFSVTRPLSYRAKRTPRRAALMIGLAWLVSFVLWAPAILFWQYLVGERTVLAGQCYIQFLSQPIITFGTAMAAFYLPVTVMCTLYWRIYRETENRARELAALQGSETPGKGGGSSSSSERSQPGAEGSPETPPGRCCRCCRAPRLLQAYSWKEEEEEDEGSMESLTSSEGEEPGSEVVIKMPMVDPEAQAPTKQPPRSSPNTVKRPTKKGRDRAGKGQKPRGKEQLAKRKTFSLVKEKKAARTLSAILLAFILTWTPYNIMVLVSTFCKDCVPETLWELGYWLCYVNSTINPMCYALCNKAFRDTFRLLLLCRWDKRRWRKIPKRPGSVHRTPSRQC

[2] = target: T2, Muscarinic acetylcholine receptor M4 (Homo sapiens, UniProt P08173); assay: Agonist activity at human muscarinic M4 receptor expressed in CHO cells co-expressing Gqi5 chimeric G-protein assessed as effect on calcium mobilization by FLIPR assay; format: functional, cell-based
T2 sequence (P08173 whole entry): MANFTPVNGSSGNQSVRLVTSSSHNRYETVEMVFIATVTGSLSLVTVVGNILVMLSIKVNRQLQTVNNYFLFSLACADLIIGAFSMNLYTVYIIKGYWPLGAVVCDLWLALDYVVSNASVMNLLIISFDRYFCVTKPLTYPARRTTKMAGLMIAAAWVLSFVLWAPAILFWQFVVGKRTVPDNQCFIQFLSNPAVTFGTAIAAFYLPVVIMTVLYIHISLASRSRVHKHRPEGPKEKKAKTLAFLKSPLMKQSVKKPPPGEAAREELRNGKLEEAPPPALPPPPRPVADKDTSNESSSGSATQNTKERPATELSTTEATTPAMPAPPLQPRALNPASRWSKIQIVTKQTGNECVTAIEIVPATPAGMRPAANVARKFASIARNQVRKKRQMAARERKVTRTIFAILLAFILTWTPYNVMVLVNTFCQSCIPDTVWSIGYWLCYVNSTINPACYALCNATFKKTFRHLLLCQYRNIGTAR

[3] = target: T3, Muscarinic acetylcholine receptor M5 (Homo sapiens, UniProt P08912); assay: Agonist activity at human muscarinic M5 receptor expressed in CHO cells assessed as effect on calcium mobilization by FLIPR assay; format: functional, cell-based
T3 sequence (P08912 whole entry): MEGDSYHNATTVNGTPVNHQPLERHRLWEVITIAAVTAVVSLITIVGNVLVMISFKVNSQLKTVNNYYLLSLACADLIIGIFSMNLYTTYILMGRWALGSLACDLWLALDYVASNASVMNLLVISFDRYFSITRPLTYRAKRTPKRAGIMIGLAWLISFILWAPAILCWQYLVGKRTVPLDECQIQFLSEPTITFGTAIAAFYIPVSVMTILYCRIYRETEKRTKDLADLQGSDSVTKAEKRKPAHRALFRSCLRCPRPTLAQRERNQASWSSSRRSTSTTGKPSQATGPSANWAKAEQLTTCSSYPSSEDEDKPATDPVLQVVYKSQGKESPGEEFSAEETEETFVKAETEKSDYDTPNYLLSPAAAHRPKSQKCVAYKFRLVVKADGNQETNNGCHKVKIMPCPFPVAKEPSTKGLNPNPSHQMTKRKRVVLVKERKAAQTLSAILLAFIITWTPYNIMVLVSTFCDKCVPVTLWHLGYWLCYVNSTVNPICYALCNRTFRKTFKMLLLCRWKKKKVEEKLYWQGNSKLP

[4] = target: T4, Muscarinic acetylcholine receptor M2 (Homo sapiens, UniProt P08172); assay: Agonist activity at human muscarinic M2 receptor expressed in CHO cells co-expressing Gqi5 chimeric G-protein assessed as effect on calcium mobilization by FLIPR assay; format: functional, cell-based
T4 sequence (P08172 whole entry): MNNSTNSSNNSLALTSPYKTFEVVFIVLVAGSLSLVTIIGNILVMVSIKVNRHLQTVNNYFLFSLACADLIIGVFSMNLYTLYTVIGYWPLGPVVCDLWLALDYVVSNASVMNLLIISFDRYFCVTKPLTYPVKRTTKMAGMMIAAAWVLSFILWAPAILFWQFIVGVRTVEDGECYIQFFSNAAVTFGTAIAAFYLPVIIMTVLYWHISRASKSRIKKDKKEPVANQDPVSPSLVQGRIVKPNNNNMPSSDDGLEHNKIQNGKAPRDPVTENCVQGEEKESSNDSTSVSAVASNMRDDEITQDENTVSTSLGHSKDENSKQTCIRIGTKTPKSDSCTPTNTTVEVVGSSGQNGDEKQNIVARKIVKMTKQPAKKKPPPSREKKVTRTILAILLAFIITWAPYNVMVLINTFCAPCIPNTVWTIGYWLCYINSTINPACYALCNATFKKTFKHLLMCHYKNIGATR

[5] = target: Muscarinic acetylcholine receptor M3 (Homo sapiens, UniProt P20309); assay: Agonist activity at human muscarinic M3 receptor expressed in CHO cells assessed as effect on calcium mobilization by FLIPR assay; format: functional, cell-based
[6] = Drug level in rat whole blood assessed as tissue binding; format: ADME, tissue-based
[7] = Ratio of drug level in brain to blood in rat at 3 mg/kg, po; format: ADME, organism-based; set-up: dose 3 mg/kg, route oral
Brain = assay: Drug level in rat brain assessed as tissue binding; format: ADME, tissue-based
[8] = Clearance in rat blood at 3 mg/kg, po; format: ADME, organism-based; set-up: dose 3 mg/kg, route oral
[9] = Ratio of drug level in brain to blood in rat at 1 mg/kg, iv; format: ADME, organism-based; set-up: dose 1 mg/kg, route intravenous
[10] = Inhibition of sigma receptor at 10 uM
Rattus norvegicus [11] = organism: Rattus norvegicus; assay: Cognitive enhancing effect in rat assessed as reversal of temporal-induced memory deficit by novel object recognition assay; format: functional, organism-based
Rattus norvegicus [12] = assay: Cognitive enhancing effect in rat assessed as reversal of temporal-induced memory deficit at 1 mg/kg by novel object recognition assay; format: functional, organism-based; set-up: dose 1 mg/kg

Chain of Muscarinic acetylcholine receptor M3 (P20309 whole entry): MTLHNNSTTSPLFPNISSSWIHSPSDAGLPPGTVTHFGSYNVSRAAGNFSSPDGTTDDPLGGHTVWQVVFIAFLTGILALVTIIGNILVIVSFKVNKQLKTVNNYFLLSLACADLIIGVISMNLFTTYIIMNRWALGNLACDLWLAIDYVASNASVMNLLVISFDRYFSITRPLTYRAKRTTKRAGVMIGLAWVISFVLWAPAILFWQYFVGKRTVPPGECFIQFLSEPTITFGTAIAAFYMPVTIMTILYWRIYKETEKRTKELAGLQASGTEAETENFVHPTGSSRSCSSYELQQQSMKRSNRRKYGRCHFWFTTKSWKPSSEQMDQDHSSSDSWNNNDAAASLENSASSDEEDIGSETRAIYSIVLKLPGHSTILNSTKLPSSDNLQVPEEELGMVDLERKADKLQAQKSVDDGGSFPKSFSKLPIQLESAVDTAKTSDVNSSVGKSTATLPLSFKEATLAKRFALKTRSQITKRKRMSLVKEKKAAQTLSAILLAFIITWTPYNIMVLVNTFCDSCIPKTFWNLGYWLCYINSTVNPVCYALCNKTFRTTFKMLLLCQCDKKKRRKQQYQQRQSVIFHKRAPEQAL

| Compound | EC50 [1] [nM] | EC50 [2] [nM] | EC50 [3] [nM] | EC50 [4] [nM] | EC50 [5] [nM] | Drug uptake [6] [%] | Kp [7] | Drug uptake (Brain) [%] | CL/F [8] [mL/min/kg] | inhibition [10] [%] | Kp [9] | Activity (Rattus norvegicus [11]) | Activity (Rattus norvegicus [12]) |
| --- | --- | --- | --- | --- | --- | --- | --- | --- | --- | --- | --- | --- | --- |
| CCO[C@H]1CC[C@](C)(N2CCC(n3c(=O)oc4ccc(C#N)cc43)CC2)CC1 | 3.16 | 794 | 398 | 2510 | 2510 |  |  |  |  |  |  |  |  |
| CCCO[C@H]1CC[C@](C)(N2CCC(N3C(=O)Cc4ccc(C)cc43)CC2)CC1 | 0.501 | 39.8 | 20 | 63.1 | 63.1 | 80 |  | 94 | 85 |  | 5.7 |  |  |
| CCCO[C@H]1CC[C@](C)(N2CCC(n3c(=O)[nH]c4cc(F)c(C)cc43)CC2)CC1 | 0.398 | 12.6 | 12.6 | 20 | 79.4 |  |  |  |  |  |  |  |  |
| CCO[C@H]1CC[C@](C)(N2CCC(n3c(=O)oc4cc(F)c(C)cc43)CC2)CC1 | 1 | 100 | 50.1 | 501 | 794 |  |  |  |  |  |  |  |  |
| Cc1cc2c(cc1F)[nH]c(=O)n2C1CCN(C2CCOCC2)CC1 | 5.01 | 251 |  |  | 2510 |  |  |  |  |  |  |  |  |
| CO[C@H]1CC[C@](C)(N2CCC(N3C(=O)Cc4ccc(C)cc43)CC2)CC1 | 3.16 | 158 | 126 | 631 | 316 |  |  |  |  |  |  |  |  |
| COCCO[C@H]1CC[C@](C)(N2CCC(n3c(=O)oc4ccc(C#N)cc43)CC2)CC1 | 10 | 794 | 1000 | 2510 | 3980 | 42 | 1.7 | 61 | 23 | 75 |  | Dose-dependent effect | Active |
| CCO[C@H]1CC[C@](C)(N2CCC(N3C(=O)Cc4ccc(C)cc43)CC2)CC1 | 0.398 | 31.6 | 20 | 100 | 126 |  |  |  |  |  |  |  |  |

The next lines start with results.

| EC50 [1] [nM] | EC50 [2] [nM] | EC50 [3] [nM] | EC50 [4] [nM] | EC50 [5] [nM] | Drug uptake [6] [%] | Kp [7] | Drug uptake (Brain) [%] | CL/F [8] [mL/min/kg] | inhibition [10] [%] | Compound | Kp [9] | Activity (Rattus norvegicus [11]) | Activity (Rattus norvegicus [12]) |
| --- | --- | --- | --- | --- | --- | --- | --- | --- | --- | --- | --- | --- | --- |
| 2.51 | 501 | 316 | 794 | 3160 | 60 | 0.8 | 74 | 11 |  | CCCO[C@H]1CC[C@](C)(N2CCC(n3c(=O)oc4ccc(S(C)(=O)=O)cc43)CC2)CC1 |  |  |  |
| 200 | 1580 | 5010 | > 15800 | 398 |  |  |  |  |  | CCO[C@H]1CC[C@](C)(N2CCC(n3c(=O)oc4ccc(S(=O)(=O)CC)cc43)CC2)CC1 |  |  |  |
| 2.51 | 200 | 158 | 631 | 631 |  |  |  |  |  | COCCO[C@H]1CC[C@](C)(N2CCC(n3c(=O)oc4ccc(C)cc43)CC2)CC1 |  |  |  |
| 12.6 | 1580 | 1260 | 2510 | 1260 |  |  |  |  |  | CCO[C@H]1CC[C@](C)(N2CCC(n3c(=O)oc4ccc(S(C)(=O)=O)cc43)CC2)CC1 |  |  |  |
| 7.94 | 501 | 398 | 1260 | 2000 |  |  |  |  |  | CO[C@H]1CC[C@](C)(N2CCC(n3c(=O)oc4ccc(C)cc43)CC2)CC1 |  |  |  |
| 1.26 | 200 | 158 | 794 | 2000 |  |  |  |  |  | CCO[C@H]1CC[C@](C)(N2CCC(n3c(=O)oc4c(F)cc(C)cc43)CC2)CC1 |  |  |  |
| 25.1 | 126 | 1000 | > 15800 | > 15800 |  |  |  |  |  | CCO[C@H]1CC[C@](C)(N2CCC(n3c(=O)oc4ccccc43)CC2)CC1 |  |  |  |
| 2.51 | 158 | 158 | 398 | 1580 |  |  |  |  |  | CCO[C@H]1CC[C@](C)(N2CCC(n3c(=O)oc4ccc(OC)cc43)CC2)CC1 |  |  |  |

Source: ChEMBL document CHEMBL1221359, “The discovery of a series of N-substituted 3-(4-piperidinyl)-1,3-benzoxazolinones and oxindoles as highly brain penetrant, selective muscarinic M1 agonists” (Bioorg Med Chem Lett, 2010)
